Results taken from ChEMBL document CHEMBL1150359, “Identification of non-lipid LPA3 antagonists by virtual screening” (Bioorg Med Chem, 2008).
pEC50, pIC50, pKi: −log10 of the molar value. Blank lines part the entries; values can stand above or below the molecule they belong to. Activity calls are given as the source filed them. No cut-off for these calls is given here. Peptide text beside a SMILES is read from it. * marks the point of attachment. Dnp = O=[N+]([O-])c1ccc(*)c([N+](=O)[O-])c1

Key:
[1] = target: T1, Lysophosphatidic acid receptor 1 (Homo sapiens, UniProt Q92633); experiment: Antagonist activity at LPA1 receptor expressed in rat RH7777 cells assessed as inhibition of LPA-induced intracellular calcium concentration; type: functional, cell-based
[2] = target: T2, Lysophosphatidic acid receptor 2 (Homo sapiens, UniProt Q9HBW0); experiment: Antagonist activity at LPA2 receptor expressed in rat RH7777 cells assessed as inhibition of LPA-induced intracellular calcium concentration; type: functional, cell-based
[3] = target: T3, Lysophosphatidic acid receptor 3 (Homo sapiens) (UniProt Q9UBY5); experiment: (§1) Antagonist activity at LPA3 receptor expressed in rat RH7777 cells assessed as inhibition of LPA-induced intracellular calcium concentration; type: functional, cell-based
T3 sequence (whole entry): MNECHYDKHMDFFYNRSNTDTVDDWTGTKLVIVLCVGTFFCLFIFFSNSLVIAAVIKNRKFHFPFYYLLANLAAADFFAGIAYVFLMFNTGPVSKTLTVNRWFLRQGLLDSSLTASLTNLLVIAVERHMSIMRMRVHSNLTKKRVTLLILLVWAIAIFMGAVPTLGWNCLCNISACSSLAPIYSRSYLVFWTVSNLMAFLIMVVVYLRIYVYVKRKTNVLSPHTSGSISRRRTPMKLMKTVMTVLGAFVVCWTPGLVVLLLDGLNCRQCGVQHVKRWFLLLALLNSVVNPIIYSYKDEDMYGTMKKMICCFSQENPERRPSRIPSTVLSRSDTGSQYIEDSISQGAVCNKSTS

[4] = target: T4, Lysophosphatidic acid receptor 3 (Homo sapiens, UniProt Q9UBY5); experiment: as §1; type: functional, cell-based
T4 sequence (Q9UBY5 whole entry): T3 sequence (whole entry)

[5] = target: T1, Lysophosphatidic acid receptor 1; experiment: Activity at LPA1 receptor expressed in rat RH7777 cells assessed as inhibition of LPA-induced intracellular calcium concentration at 30 uM; type: functional, cell-based
[6] = target: T2, Lysophosphatidic acid receptor 2; experiment: Activity at LPA2 receptor expressed in rat RH7777 cells assessed as inhibition of LPA-induced intracellular calcium concentration at 30 uM; type: functional, cell-based
[7] = target: T4, Lysophosphatidic acid receptor 3; experiment: Inhibition of LPA3 receptor
[8] = target: T3, Lysophosphatidic acid receptor 3 (Homo sapiens); experiment: Activity at LPA3 receptor expressed in rat RH7777 cells assessed as potentiation of LPA-induced intracellular calcium concentration; type: functional, cell-based
[9] = target: T3, Lysophosphatidic acid receptor 3 (Homo sapiens); experiment: Activity at LPA3 receptor expressed in rat RH7777 cells assessed as inhibition of LPA-induced intracellular calcium concentration at 30 uM; type: functional, cell-based
[10] = target: T1, Lysophosphatidic acid receptor 1; experiment: Agonist activity at LPA1 receptor expressed in rat RH7777 cells assessed as LPA-induced intracellular calcium response; type: functional, cell-based
[11] = target: T2, Lysophosphatidic acid receptor 2; experiment: Agonist activity at LPA2 receptor expressed in rat RH7777 cells assessed as LPA-induced intracellular calcium response; type: functional, cell-based
[12] = target: T4, Lysophosphatidic acid receptor 3; experiment: Agonist activity at LPA3 receptor expressed in rat RH7777 cells assessed as LPA-induced intracellular calcium response; type: functional, cell-based

T1 sequence (Q92633 whole entry): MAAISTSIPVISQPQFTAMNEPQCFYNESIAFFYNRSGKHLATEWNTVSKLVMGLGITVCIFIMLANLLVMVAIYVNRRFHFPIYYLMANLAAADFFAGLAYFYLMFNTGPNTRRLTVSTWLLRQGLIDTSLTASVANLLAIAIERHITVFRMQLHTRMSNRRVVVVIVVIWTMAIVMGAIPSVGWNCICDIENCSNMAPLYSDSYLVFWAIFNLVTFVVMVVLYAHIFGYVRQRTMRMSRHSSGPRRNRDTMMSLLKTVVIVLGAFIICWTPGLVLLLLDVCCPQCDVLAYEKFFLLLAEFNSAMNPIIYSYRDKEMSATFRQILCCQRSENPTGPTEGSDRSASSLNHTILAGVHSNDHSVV
T2 sequence (Q9HBW0 whole entry): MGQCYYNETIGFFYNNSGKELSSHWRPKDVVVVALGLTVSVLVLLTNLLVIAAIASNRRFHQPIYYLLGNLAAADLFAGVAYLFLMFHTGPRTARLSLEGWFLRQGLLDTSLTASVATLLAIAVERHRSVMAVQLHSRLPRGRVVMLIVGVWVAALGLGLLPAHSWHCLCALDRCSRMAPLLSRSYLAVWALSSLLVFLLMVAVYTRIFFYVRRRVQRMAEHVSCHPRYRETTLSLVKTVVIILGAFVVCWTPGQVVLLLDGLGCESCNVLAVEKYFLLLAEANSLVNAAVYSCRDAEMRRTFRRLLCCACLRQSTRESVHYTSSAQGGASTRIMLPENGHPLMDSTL

Imax [2]: 53.3%
Imax [3]: 81.7%
SMILES: O=C(O)/C=C/C(=O)Nc1cccc(NC(=O)/C=C/C(=O)O)c1C(=O)O

Imax [5]: 34.6%
Imax [6]: 46%
pIC50 [4]: 6.46
pKi [4]: 6.50
SMILES: O=C(O)/C=C\C(=O)Nc1cccc(NC(=O)c2ccccc2)c1

pIC50 [1]: < 5.14
Imax [1]: 59.3%
pIC50 [2]: < 5.03
Imax [2]: 88%
Imax [3]: 53.7%
SMILES: Nc1ccc(C(=O)Nc2ccc(C(=O)Nc3ccc4c(O)cc(S(=O)(=O)O)cc4c3)cc2)cc1

Emax [1]: 180%
Emax [6]: 113%
Emax [9]: 214%
pEC50 [10]: < 4.91
pEC50 [11]: < 4.94
pEC50 [12]: < 4.93
SMILES: CCOC(=O)c1ccc(/C=C/c2ccc(S(=O)(=O)O)cc2)cc1

Imax [5]: 59%
pIC50 [2]: 7.55
pKi [2]: 7.68
pIC50 [4]: 4.86
pKi [4]: 5.15
SMILES: O=C(O)/C=C/C(=O)Nc1ccc(-c2ccc(NC(=O)/C=C/C(=O)O)cc2)cc1

Imax [5]: 52.2%
Imax [9]: 16%
SMILES: O=C(O)/C=C\C(=O)Nc1cccc(NC(=O)Cc2ccccc2)c1

The next lines start with the molecule.

SMILES: O=C(O)/C=C/C(=O)Nc1cccc(NC(=O)/C=C/C(=O)O)c1
pIC50 [1]: 6.66
pKi [1]: 7.30
pIC50 [2]: 7.66
pKi [2]: 7.68

SMILES: O=C(O)/C=C/C(=O)Nc1ccc(Oc2cccc(Oc3ccc(NC(=O)/C=C/C(=O)O)cc3)c2)cc1
pIC50 [1]: 4.56
pKi [1]: 4.87
pIC50 [2]: 8.05
pKi [2]: 8.14
pIC50 [4]: 5.91
pKi [4]: 6.51

SMILES: CCCCCCC(=O)OC[C@H](COP(=O)(O)O)OC(=O)CCCCCC
pIC50 [7]: 6.84

SMILES: O=P(O)(O)OC[C@H]1O[C@@H](n2cnc3c(NCc4ccccc4)ncnc32)[C@H](O)[C@@H]1O
Activity [8]: Active

SMILES: NCC(=O)N[C@@H](CSc1ccc([N+](=O)[O-])cc1[N+](=O)[O-])C(=O)N[C@@H](CCC(=O)O)C(=O)O (H-Gly-Cys(Dnp)-Glu-OH)
Imax [3]: 69.8%
pIC50 [4]: 7.62

SMILES: CCCCCCC(=O)OC[C@H](COP(O)(O)=S)OC(=O)CCCCCC
pIC50 [7]: 6.74
